Measurements: US8076486B2, “Heteroaryl-substituted arylaminopyridine derivatives as MEK inhibitors” (Merck Serono S.A., priority 2006, dated 2011)

Experiments:
[1] = tested on: human melanoma A375 cells; test: Tumor Cell Proliferation Assay (ATP Lite), A375; type: cell-based; conditions: A-375, 96 h, 4 days, ATPlite
Experimental: (§1) Assay 2: Tumor Cell Proliferation Assays (ATP Lite)
(§2) Murine colon C26 (1500 cells/well), human melanoma A375 (2000 cells/well), or human pancreatic MiaPaCa-2 cells (2000 cells/well) were plated in white, 96 well plates (Corning) in growth media (DMEM with 10% fetal bovine serum, 2 mM glutamine for C26 and MiaPaCa-2, and RPMI with 10% fetal bovine serum, 2 mM glutamine for A375) and cultured overnight at 37° C. in a humidified, 5% CO2 incubator. Inhibitors were serially diluted in 100% DMSO and subsequently added to the cells, in growth media, to reach a final concentration of 0.25% DMSO. The cells were incubated for 4 days in the presence of the test compounds and the proliferation was quantitated using the ATPlite cell proliferation kit (Packard).

[2] = biological target: human MEK1 (Homo sapiens, UniProt Q02750, S218E/S222E); test: MEK-1 Enzyme Assay (LANCE-HTRF); type: biochemical; conditions: MEK-1 EE, ERK-2K52A substrate, 9 uM ATP, 1.5 hrs
Experimental: Assay 1: MEK-1 Enzyme Assay (LANCE-HTRF)
Inhibition of human MEK1 kinase activity was monitored with a homogenous, fluorescence-based assay. The assay uses time resolved fluorescence resonance energy transfer to probe for phosphorylation of ERK1 by MEK1. The detailed procedure is described in the following:
Constititutively active MEK-1 EE (150 ng/well) and ERK-2K52A (110 ng/well) were incubated in black, 384 well Optiplates (Perkin Elmer) for 1.5 hrs at room temperature, in the presence of increasing concentrations of inhibitors. The total reaction volume was 50 ul. The inhibitors were serial diluted in kinase buffer (9 uM ATP, 50 mM Tris-Hcl pH 8.0, 10 mM MgCl2, 1 mM DTT and 100 uM Na3VO4), to a final concentration of 1% DMSO. At the end of the incubation, the enzyme reaction was quenched by adding 50 ul of assay buffer containing 50 mM Tris-Hcl, 50 mM EDTA, 0.1% BSA and a mixture of 1.25 ug/mL europium labeled anti-phosphotyrosine mAb (Perkin Elmer) and 5 ug/mL of allophycocyanin labeled anti-GST antibody (CIS-US). Plates were agitated on a plate shaker for 30 minutes and the phosphorylation of the ERK-2K52A substrate was measured by homogeneous time resolved fluorescence (HTRF) at 340 nm excitation and […] emission filters on the VICTOR V fluorescence plate reader. Phosphorylation is expressed as a ratio of 665 nM signal×10,000/615 nM signal. To assess the inhibitory potential of the compounds, IC50-values were determined.

[3] = tested on: human pancreatic MiaPaCa-2 cells; test: Tumor Cell Proliferation Assay (ATP Lite), MiaPaCa-2; type: cell-based; conditions: MIA PaCa-2, 96 h, 4 days, ATPlite, read-out: MiaPaCa2 cell proliferation IC50
Experimental: as §1, §2

[4] = tested on: Murine colon C26 cells; test: Tumor Cell Proliferation Assay (ATP Lite), C26; type: cell-based; conditions: Mus musculus, 96 h, 4 days, ATPlite
Experimental: as §1, §2

human MEK1, sequence (Q02750 whole entry S218E/S222E): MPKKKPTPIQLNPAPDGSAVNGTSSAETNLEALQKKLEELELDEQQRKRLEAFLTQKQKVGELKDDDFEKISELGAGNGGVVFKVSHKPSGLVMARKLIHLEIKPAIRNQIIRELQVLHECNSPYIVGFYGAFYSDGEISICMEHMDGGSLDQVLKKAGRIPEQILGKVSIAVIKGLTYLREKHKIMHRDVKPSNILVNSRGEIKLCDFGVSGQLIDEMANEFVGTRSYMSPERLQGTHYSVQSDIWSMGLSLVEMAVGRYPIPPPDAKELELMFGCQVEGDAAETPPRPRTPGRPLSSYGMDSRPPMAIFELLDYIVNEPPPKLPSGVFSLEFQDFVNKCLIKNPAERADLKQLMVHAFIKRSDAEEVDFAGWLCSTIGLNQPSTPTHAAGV

IC50 [1] [µM] | IC50 [2] [µM] | IC50 [3] [µM] | IC50 [4] [µM] | Compound
≤ 3 | ≤ 3 | 3 to 25 | 3 to 25 | O=c1[nH]nc(-c2ccncc2Nc2ccc(I)cc2F)o1 [Example 1, 5-[3-(2-Fluoro-4-iodo-phenylamino)-pyridin-4-yl]-3H-[1,3,4]oxadiazol-2-one]
≤ 3 | ≤ 3 | ≤ 3 | 3 to 25 | Fc1cc(I)ccc1Nc1cnccc1-c1n[nH]c(=S)o1 [Example 3, 5-[3-(2-Fluoro-4-iodo-phenylamino)-pyridin-4-yl]-3H-[1,3,4]oxadiazole-2-thione]
≤ 3 | ≤ 3 | ≤ 3 | ≤ 3 | O=c1[nH]nc(-c2ccncc2Nc2ccc(I)cc2F)[nH]1 [Example 4, 5-[3-(2-Fluoro-4-iodo-phenylamino)-pyridin-4-yl]-2,4-dihydro-[1,2,4]triazol-3-one]
≤ 3 | ≤ 3 | ≤ 3 | ≤ 3 | CSc1nnc(-c2ccncc2Nc2ccc(I)cc2F)o1 [Example 5, (2-Fluoro-4-iodo-phenyl)-[4-(5-methylsulfanyl-[1,3,4]oxadiazol-2-yl)-pyridin-3-yl]-amine]
≤ 3 | ≤ 3 | ≤ 3 | ≤ 3 | Fc1cc(I)ccc1Nc1cnccc1-c1nnc(N2CCOCC2)o1 [Example 6, (2-Fluoro-4-iodo-phenyl)-[4-(5-morpholin-4-yl-[1,3,4]oxadiazol-2-yl)-pyridin-3-yl]-amine]
≤ 3 | ≤ 3 | ≤ 3 | ≤ 3 | CNc1nnc(-c2ccncc2Nc2ccc(I)cc2F)s1 [Example 7, (2-Fluoro-4-iodo-phenyl)-[4-(5-methylamino-[1,3,4]thiadiazol-2-yl)-pyridin-3-yl]-amine]
≤ 3 | ≤ 3 | ≤ 3 | ≤ 3 | Cn1c(-c2ccncc2Nc2ccc(I)cc2F)n[nH]c1=S [Example 8, 5-[3-(2-Fluoro-4-iodo-phenylamino)-pyridin-4-yl]-4-methyl-2,4-dihydro-[1,2,4]triazole-3-thione]
≤ 3 | 3 to 25 | ≤ 3 | ≤ 3 | Fc1cc(I)ccc1Nc1cnccc1C1NNC(=S)N1CCN1CCOCC1 (stereo not drawn) [Example 9, 5-[3-(2-Fluoro-4-iodo-phenylamino)-pyridin-4-yl]-4-(2-morpholin-4-yl-ethyl)-[1,2,4]triazolidine-3-thione]
≤ 3 | ≤ 3 | ≤ 3 | ≤ 3 | CC1(C)OCC(CNc2nnc(-c3ccncc3Nc3ccc(I)cc3F)o2)O1 (stereo not drawn) [Example 10, (4-{5-[(2,2-Dimethyl-[1,3]dioxolan-4-ylmethyl)-amino]-[1,3,4]oxadiazol-2-yl}-pyridin-3-yl)-(2-fluoro-4-iodo-phenyl)-amine]
≤ 3 | ≤ 3 | ≤ 3 | ≤ 3 | OCC(O)CNc1nnc(-c2ccncc2Nc2ccc(I)cc2F)o1 (stereo not drawn) [Example 11, 3-{5-[3-(2-Fluoro-4-iodo-phenylamino)-pyridin-4-yl]-[1,3,4]oxadiazol-2-ylamino}-propane-1,2-diol]
≤ 3 | ≤ 3 | ≤ 3 | ≤ 3 | Fc1cc(I)ccc1Nc1cnccc1-c1nnc(NCCN2CCOCC2)s1 [Example 12, (2-Fluoro-4-iodo-phenyl)-{4-[5-(2-morpholin-4-yl-ethylamino)-[1,3,4]thiadiazol-2-yl]-pyridin-3-yl}-amine]
≤ 3 | ≤ 3 | ≤ 3 | ≤ 3 | Cc1nnc(-c2ccncc2Nc2ccc(I)cc2F)o1 [Example 13, (2-Fluoro-4-iodo-phenyl)-[4-(5-methyl-[1,3,4]oxadiazol-2-yl)-pyridin-3-yl]-amine]
≤ 3 | ≤ 3 | ≤ 3 | ≤ 3 | Nc1nnc(-c2ccncc2Nc2ccc(Br)cc2Br)o1 [Example 14, [4-(5-Amino-[1,3,4]oxadiazol-2-yl)-pyridin-3-yl]-(2,4-dibromo-phenyl)-amine]
≤ 3 | ≤ 3 | ≤ 3 | ≤ 3 | CCOC(=O)C(=O)Nc1nnc(-c2ccncc2Nc2ccc(I)cc2F)o1 [Example 15, N-{5-[3-(2-Fluoro-4-iodo-phenylamino)-pyridin-4-yl]-[1,3,4]oxadiazol-2-yl}-oxalamic acid ethyl ester]
≤ 3 | ≤ 3 | ≤ 3 | ≤ 3 | CNc1nnc(-c2ccncc2Nc2ccc(I)cc2F)o1 [Example 16, (2-Fluoro-4-iodo-phenyl)-[4-(5-methylamino-[1,3,4]oxadiazol-2-yl)-pyridin-3-yl]-amine]
3 to 25 | ≤ 3 | 3 to 25 | > 25 | CCOC(=O)CNC(=O)Nc1nnc(-c2ccncc2Nc2ccc(I)cc2F)o1 [Example 17, (3-{5-[3-(2-Fluoro-4-iodo-phenylamino)-pyridin-4-yl]-[1,3,4]oxadiazol-2-yl}-ureido)-acetic acid ethylester]
≤ 3 | ≤ 3 | ≤ 3 | ≤ 3 | Fc1cc(I)ccc1Nc1cnccc1-c1nnc(NCCN2CCCCC2)o1 [Example 18, (2-Fluoro-4-iodo-phenyl)-{4-[5-(2-piperidin-1-yl-ethylamino)-[1,3,4]oxadiazol-2-yl]-pyridin-3-yl}-amine]
≤ 3 | ≤ 3 | ≤ 3 | ≤ 3 | Fc1cc(I)ccc1Nc1cnccc1-c1nnc(NCCCN2CCOCC2)o1 [Example 19, (2-Fluoro-4-iodo-phenyl)-{4-[5-(3-morpholin-4-yl-propylamino)-[1,3,4]oxadiazol-2-yl]-pyridin-3-yl}-amine]
≤ 3 | ≤ 3 | ≤ 3 | ≤ 3 | Fc1cc(I)ccc1Nc1cnccc1-c1nnc(NCCN2CCOCC2)o1 [Example 20, (2-Fluoro-4-iodo-phenyl)-{4-[5-(2-morpholin-4-yl-ethylamino)-[1,3,4]oxadiazol-2-yl]-pyridin-3-yl}-amine]
≤ 3 | ≤ 3 | ≤ 3 | ≤ 3 | CC(=O)Nc1nnc(-c2ccncc2Nc2ccc(I)cc2F)o1 [Example 21, N-{5-[3-(2-Fluoro-4-iodo-phenylamino)-pyridin-4-yl]-[1,3,4]oxadiazol-2-yl}-acetamide]
 | ≤ 3 |  |  | C#Cc1cc(-c2nnc(N)o2)c(Nc2ccc(I)cc2F)cn1 [Example 28, [4-(5-Amino-[1,3,4]oxadiazol-2-yl)-6-ethynyl-pyridin-3-yl]-(2-fluoro-4-iodo-phenyl)-amine]
 | ≤ 3 |  |  | CCOc1nnc(-c2ccncc2Nc2ccc(I)cc2F)[nH]1 [Example 30, [4-(5-Ethoxy-4H-[1,2,4]triazol-3-yl)-pyridin-3-yl]-(2-fluoro-4-iodo-phenyl)-amine]
 | ≤ 3 |  |  | CCOC(=O)c1noc(-c2ccncc2Nc2ccc(I)cc2F)n1 [Example 36, 5-[3-(2-Fluoro-4-iodo-phenylamino)-pyridin-4-yl]-[1,2,4]oxadiazole-3-carboxylic acid ethyl ester]
 | ≤ 3 |  |  | Cc1noc(C)c1-c1ccncc1Nc1ccc(I)cc1F [Example 66]
